Source: the OPERA property sets (Mansouri et al. 2018)
Peptide text beside a SMILES is read from it.

Structure (SMILES)	logP
NC(=O)Nc1ccc(F)cc1	1.04
CCN(N=O)C(N)=O	0.23
CCOCCCl	0.98
CN(N=O)C(=O)Nc1ccc(F)cc1	1.88
COP(=O)(OC)SCn1nnc2ccccc2c1=O	0.78
CN(C)C(=O)OCc1cccc(Cl)c1	2.82
CC(=O)c1ccc2ncccc2c1	1.58
CN(C)N=Nc1ccc(C=CC(=O)O)cc1	2.66
CC(=O)CCC(=O)O	-0.49
CN(C)/N=N/c1ccccc1I	3.5
CCN1CC(C(O)C(CC2CCCCC2)NC(=O)C(Cc2cnc[nH]2)NC(=O)C(CC(=O)N(C)CCO)Cc2ccccc2)OC1=O (stereo not drawn)	1.94
CN(Cc1ccccc1)c1ccccc1	4.22
CN1CCOCC1	-0.33
COc1ccc(O)c2ncccc12	2.06
CC(=O)N(C)N=Nc1ccc(C)cc1	3.23
Nc1ccccc1I	2.32
COC(=O)COc1ccccc1C	2.08
Clc1ccc(Cl)c(Cl)n1	2.77
O=C1CCC(N2C(=O)c3ccccc3C2=O)C(=O)N1 (stereo not drawn)	0.33
Nc1cccc(F)c1	1.3
CCc1cc([N+](=O)[O-])cc([N+](=O)[O-])c1O	2.67
CC1CCC(NC(=O)N(CCCl)N=O)CC1 (stereo not drawn)	3.3
COc1cccc(CC(=O)O)c1	1.5

Structure (SMILES)	logP
CC(=O)c1cn(C)c2ccccc12	1.95
COc1cc(S(C)=O)ccc1-c1cn2ccnc(OC)c2n1 (stereo not drawn)	1.49
CC(=O)Nc1cccc(C(F)(F)F)c1	2.56
Clc1cccs1	2.54
CCCc1cc(OC)c(CC(C)N)cc1OC (stereo not drawn)	3.37
CNCC(F)(F)F	0.55
COC1C(O)C(C)OC(OC2CCC3(C)C(CCC4C3CCC3(C)C4(O)CC(O)C34C=CC(=O)OC4)C2)C1O (stereo not drawn)	0.59
Oc1cccnc1	0.48
O=Cc1ccco1	0.41
Oc1cc(Cl)c(Cl)c(Cl)c1	4.01
OC(c1ccccc1)(C(F)(F)F)C(F)(F)F	3.41
Cc1ccccn1	1.11
NC(=O)c1ccc(Cl)cc1	1.55
O=[N+]([O-])c1ccc(C=Cc2nccs2)o1	1.97
Cc1[nH]ccc(=O)c1O	-0.49
C=C1C(=O)OC2CC(C)C3C=CC(=O)C3(C)CC12 (stereo not drawn)	1.17
COc1ccccc1NCC(N)=O	0.78
COP(=S)(OC)Oc1cc(Cl)c(Br)cc1Cl	5.21
O=c1cc[nH]c2cc(C(F)(F)F)ccc12	2.05
COC(=O)C(Cc1ccc(O)cc1)NC(C)=O (stereo not drawn)	0.33
FC(Cl)(Cl)Cl	2.53
O=C1c2ccccc2C(=O)C1c1ccccc1	2.9
FC(F)(F)F	1.18

Structure (SMILES)	logP
CCOc1ccc2cc[nH]c2c1	2.53
CCCOC(=O)c1ccccc1C(=O)OCCC	3.27
Cc1cccc2nccnc12	2.04
CCCCC(=O)O[C@]1(C(=O)CO)CC[C@H]2[C@@H]3CCC4=CC(=O)CC[C@]4(C)[C@H]3[C@@H](O)C[C@@]21C	3.79
CCc1cccc(S(I)=C(N(C)C)N(C)C)c1 (stereo not drawn)	0.34
Cc1ccc2ccccc2c1	3.86
COc1ccccc1C(=O)c1ccncc1	1.86
CCCCNC1=CC(=O)c2ccccc2C1=O	3.11
NS(=O)(=O)c1cccc(Cl)c1	1.29
O=CNc1ccc(Cl)cc1	2.04
C=CCN(C(C)=O)C(C)C	1.14
CCCOc1cccc(C=C(C(C)=O)C(=O)OCC)c1	3.34
CC1CN1C1=CC(=O)C(N2CC2C)=CC1=O (stereo not drawn)	1.07
CCCCCC(C)(C)c1ccc(C2CCCC(O)C2)c(O)c1 (stereo not drawn)	5.97
NC(Cc1c[nH]c2ccc(F)cc12)C(=O)O (stereo not drawn)	-0.71
O=NN1CCC(Cl)C(Cl)C1 (stereo not drawn)	1.04
Clc1ccc(-c2ccc(Cl)c(Cl)c2Cl)c(Cl)c1Cl	7.31
COc1cc([N+](=O)[O-])c(OC)cc1CC(C)N (stereo not drawn)	1.74
CCN(CC)CCNC(=O)c1cc(F)c(N)cc1OC	2.28
Nc1ccc(S(=O)(=O)Nc2ncccn2)cc1	-0.09
Nc1ccncc1	0.32
COc1ccc(Cl)cc1C(=O)NCCc1ccc(C(=O)O)cc1	3.4
Clc1ccc(Cl)c(-c2cc(Cl)ccc2Cl)c1	6.09

Structure (SMILES)	logP
Cc1ccc2ccccc2n1	2.59
CC(CN(C)C)CN1c2ccccc2Sc2ccccc21 (stereo not drawn)	4.71
O=C(Nc1ccccc1)c1ccccc1O	3.27
O=C1CC(Sc2ccccc2)N1 (stereo not drawn)	1.58
CC(=O)OC1(C(=O)CO)CCC2C3CCC4=CC(=O)CCC4(C)C3C(=O)CC21C (stereo not drawn)	2.45
COCC(F)Cn1ccnc1[N+](=O)[O-] (stereo not drawn)	0.18
Oc1cccc2c(Cl)ccnc12	2.67
CNC(=S)NCc1ccccc1	1.35
CCOP(=S)(OCC)SCSP(=S)(OCC)OCC	5.07
Cc1ccc(OCC(=O)O)cc1	1.86
CCCSP(=O)(OCC)Oc1ccc(Br)cc1Cl (stereo not drawn)	4.68
CNC(=O)Oc1ccccc1Cl	1.64
CCCCc1ccc(C(=O)O)cc1	3.97
CC12CCC(O)CC1CCC1C2CCC2(C)C(C3=CC(=O)OC3)C(O)CC12O (stereo not drawn)	1.6
O=C(Nc1ccccc1)Nc1ccccc1	3
O=C(O)CC(O)C(=O)O (stereo not drawn)	-1.26
CCCc1ccccc1O	2.93
CNC1=C(N2CC2)C(=O)C(NC)=C(N2CC2)C1=O	0.13
O=C(O)CCCOc1ccc(Cl)cc1Cl	3.53
Cn1ccccc1=O	-0.23
c1ccc(C23CCN(CC2)CC3)cc1	2.54
FC(F)(F)c1nc2c(Br)c(Br)c(Br)c(Br)c2[nH]1	4.81
C=CC(=O)OCCO	-0.21

Structure (SMILES)	logP
CC(C(=O)O)c1ccc(-c2ccccc2)c(F)c1 (stereo not drawn)	4.16
O=C(O)Cc1ccc(Br)cc1	2.31
O=C1NC(=O)C(c2ccccc2)(c2ccc(O)cc2)N1 (stereo not drawn)	1.7
N#Cc1ccccc1N	1.4
O=C1CC(=O)c2ccccc21	0.61
Clc1ccc(C(c2ccc(Cl)cc2)C(Cl)(Cl)Cl)cc1	6.91
CCCN(C)/N=N/c1ccc(C(N)=O)cc1	2.17
C=C(C)C(=O)OCCO	0.47
CN(C)C	0.16
CCN(O)C(N)=O	-0.1
Cn1cc2ccc([N+](=O)[O-])cc2n1	1.76
CN1C(=O)CCC1=O	-0.95
CCC1(c2ccccc2)C(=O)NC(=O)NC1=O	1.47
O=C(Cn1c(=O)sc2ccc(Cl)cc21)N1CCNCC1	1.35
CCCCCCC1(CC)C(=O)NC(=O)NC1=O	2.46
CCCCCOC(=O)c1cc(O)c(O)c(O)c1	2.67
c1ccc2c(c1)ccc1c3ccc4ccccc4c3[nH]c21	6.4
CCC(C)OC(C)=O (stereo not drawn)	1.72
OCc1ccc(O)cc1	0.25
C1=CCOC1	0.46
N#CCC(N)=C(C#N)C#N	-0.13
Nc1ncnc2c1ncn2[C@@H]1O[C@@H]2COP(=O)(O)O[C@H]2[C@H]1O	-2.96
COc1ccccc1OC	1.6

Structure (SMILES)	logP
C#C	0.37
Nc1ncnc2nc(-c3ccccc3)[nH]c12	2.31
CC(=O)N[C@@H](C)C(=O)N[C@@H](Cc1ccc(O)cc1)C(=O)N[C@@H](CC(C)C)C(N)=O (Ac-Ala-Tyr-Leu-NH2)	-0.04
CCCC(C)=O	0.91
O=NN(CCCl)C(=O)NC1CCCCCCCCCCC1	5.64
CNC(=O)Oc1cc(C(C)C)cc(C(C)C)c1	3.79
CCc1ccccc1CC	3.72
COc1cc(NCc2ccc3nc(N)nc(N)c3c2C)cc(OC)c1OC	2.55
CCC(=O)OC1(C(C)=O)C(C)CC2C3CCC4=CC(=O)C=CC4(C)C3(F)C(O)CC21C (stereo not drawn)	3.09
Cn1c(C=[N+](C)[O-])cnc1[N+](=O)[O-]	0.04
COc1cc([C@@H]2c3cc4c(cc3[C@H](O)[C@H]3COC(=O)[C@H]23)OCO4)cc(OC)c1OC	2.01
CC(=O)NO	-1.59
COc1ccc([N+](=O)[O-])cc1N	1.47
CCOC(=O)C(=Cc1cccc(OCC)c1)C(=O)OCC	3.39
O=C1C=CC(=O)C=C1	0.2
CCC(C)c1ccccc1OC(=O)NC (stereo not drawn)	2.78
COC1=CC(=O)C[C@@H](C)[C@]12Oc1c(Cl)c(OC)cc(OC)c1C2=O	2.18
NNC(=O)c1cccc([N+](=O)[O-])c1	0.23
CN(C)C(=O)OCc1ccc([N+](=O)[O-])cc1	1.95
CC(=O)c1cccc(OCC(=O)O)c1	0.98
CN(C)CCc1cccnc1	0.82
NCCCc1cccnc1	0.44
CCNC(=S)Nc1ccccc1	1.42
